The values below come from US5851782A, “Inhibitors of ceramidase” (Duke University, priority 1996, dated 1998).

The test system of experiment [1] is endogenous ceramide levels in HL-60 cells. To be noted: HL-60, TLC of ceramide phosphates.
Description: (§1) Ceramide and diacylglycerol levels were measured on total liquid extracts using the diacylglycerol kinase assay (Jayadev et al, J. Biol. Chem. 270:2047 (1995)).
(§2) Therefore, HL-60 cells were treated with 5 μM D-e-MAPP, ethanol vehicle or L-e-MAPP for 0-24 h. At the indicated time points (FIG. 4A), total lipids were extracted and endogenous ceramide levels were measured by the Escherichia coli diacylglycerol kinase assay.
(§3) The upper spot of ceramide phosphate co-migrated with synthetic D-erythro-C18 dihydroceramide phosphate whereas the lower spot co-migrated with D-erythro-C18 ceramide phosphate.
Experiment [2] deals with T1, acid ceramidase (Homo sapiens, UniProt Q13510).
T1 sequence (Q13510 22-395): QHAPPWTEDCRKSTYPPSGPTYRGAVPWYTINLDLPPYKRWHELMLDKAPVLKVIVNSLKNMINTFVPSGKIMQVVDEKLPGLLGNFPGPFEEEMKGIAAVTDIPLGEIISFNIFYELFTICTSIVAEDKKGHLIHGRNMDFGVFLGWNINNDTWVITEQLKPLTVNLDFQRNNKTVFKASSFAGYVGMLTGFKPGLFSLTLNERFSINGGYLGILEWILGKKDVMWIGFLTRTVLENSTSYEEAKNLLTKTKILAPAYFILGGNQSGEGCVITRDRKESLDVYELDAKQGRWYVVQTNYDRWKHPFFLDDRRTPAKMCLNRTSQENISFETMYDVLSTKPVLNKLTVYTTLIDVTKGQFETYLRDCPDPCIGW
Description: Acid ceramidase activity in vitro at pH 4.5. To be noted: 50 μM. The class given is biochemical. Also noted: Ceramidase activity was determined from total homogenates of HL-60 cells; endogenous in cells; host or cells: HL-60 cells.
Description: Measurement of ceramidase activity in HL-60 cells. Ceramidase activity in HL-60 cells was measured by a modification of the method of Gatt and Yavin (Methods Enzymol. 14:139 (1969)). Cells were disrupted by sonication in 0.25M sucrose, 1 mM EDTA, and centrifuged at 10,000×g for 10 min after which the supernatant was centrifuged at 100,000×g for 60 min. Ten μl of 1 mM ceramide substrate ([^3 H]C16 -ceramide) was mixed with 100 μl of Triton X-100 (0.1%) in chloroform/methanol, 2:1, and 100 μl of 0.2% sodium cholate in chloroform/methanol, 2:1, after which the solvent was evaporated under N2 at 70° C. To this mixture, 30 μl of water was added and the tubes were heated for 5 s in an 80° C. water bath and then put on ice. Fifty μl of the appropriate buffer depending on desired pH was added followed by 20 μl of 50 mM MgCl2 and 100 μl of cell extract. In experiments using inhibitors, the desired inhibitor was added in ethanol either with the substrate or directly to the final solution. The reaction mixture was incubated for 1 h at 37° C. The ^3 H-fatty acid products of ceramidase were separated by the addition of 2 ml of Dole's solution (isopropyl alcohol, heptane, NaOH), 1.2 ml of heptane, and 1 ml of water. After vortexing and centrifugation, the upper phase was discarded and the lower phase was washed twice with heptane and the upper phase discarded each time. […]

Experiment [3] has as its system endogenous ceramide levels in HL-60 cells. Description: cells. As to conditions: Homo sapiens, HL-60, 24 h, read-out: endogenous ceramide level relative to baseline.
Description: as §1, §2, §3

With `CCCCCCCCCCCCCC(=O)N[C@H](C)[C@@H](O)c1ccccc1` [D-e-MAPP, D-erythro-2-(N-myristolyamino)-1-phenyl-1-propanol], in experiment [1], the “selectivity of increase, ceramide versus dihydroceramide” value is recorded as “selective increase in ceramide but not dihydroceramide levels”. The inhibition at 50 µM in experiment [2] was below 10%. Also, the fold induction at 5 µM in experiment [3] was around 3.
